Results reported in US20040230257A1, “Enhanced bioavailability of nutrients, pharmaceutical agents, and other bioactive substances through laser resonant homogenization or modification of molecular shape or crystalline form” (priority 2003, published 2004).
Counter-ions that a name gives are not always drawn.

How the values were obtained:
[1] = tested on: murine macrophages; assay: Nitrite (nitric oxide) production by LPS-stimulated murine macrophages given arginine samples; assay type: cell-based; details: arginine 120 mcg/ml, LPS 1 ng/ml, 24 hours; for Mean O.D. ± S.D. (optical density at 540 nm, a measure of nitrite concentration): 12 wells
Procedure: Paracelsian in Ithaca, N.Y., an outside independent lab, performed the following bioassays. Each arginine sample was added to 12 wells of murine macrophages to achieve a concentration of 120 mcg/ml. This is the estimated serum concentration for a 70 Kg person after ingesting a 6-gram serving of arginine, a level observed in numerous clinical studies to be associated with a wide range of physiologic benefits. LPS at 1 ng/ml was added to each well and the cells were incubated for 24 hours. The nitrite concentration in each well's supernatant was determined 24 hours after initiation of treatment as a relative measure of nitric oxide production.
The results are listed in order of relative nitrite production, from greatest to least. The first column is the Arg #, the second the mean plus or minus the standard deviation of the optical density measurement at 540 nm, a measure of nitrite concentration, and the third column the relative production of nitrites expressed in micrograms per ml as determined from optical density.

[2] = Case report: lupus patient on the laser treated methylation formula; assay type: in vivo, human; details: before entry, only treatment
Description: The exemplary patient had suffered with relapsing lupus for several years. At the time of entry into the methylation formula studies of EXAMPLE 6, they had experienced a relapse of severe disease for several months.
Their disease was characterized by exquisitely tender blistering and ulcerating lesions on their hands and feet that made it difficult to walk or open a cabinet door without severe pain. Their skin was pallid, they were extremely fatigued with a chronic low energy state, and had suffered extensive hair loss. Their sedimentation rate, a marker for systemic inflammation, was highly elevated at 99, whereas a normal level would be 0-30. […] They declined the use of corticosteroids due to severe treatment side effects during a prior relapse.
The subject was randomized to the placebo control group and for 3 months had no improvement in condition. In the second phase of the study, they were placed on a high dose of the methylation formula of 6 grams of laser treated betaine plus cofactors daily. […]
The subject continued on a lower dose of the laser treated methylation formula for 5 more months, reduced to 1-2 grams of the laser treated betaine plus cofactors. […] At the end of fifth month of lower dose treatment, their sedimentation rate had dropped to the very low normal value of 1, the lowest level ever recorded for them.

[3] = Pilot test: blood SAMe level and knee pain in a subject with osteoarthritis; assay type: in vivo, human
Description: As a pilot test, a subject with osteoarthritis had blood SAMe levels measured while taking SAMe and then while taking a betaine formulation. […] On this level of SAMe ingestion for three months, their blood SAMe level was 4.9 (the normal range for this lab is 4.2-8.2). At this time, SAMe was discontinued and they started a methylation formula with one gram of laser treated betaine plus laser treated metabolic cofactors. The betaine and metabolic co-factors were in the same ratios as in the double blind clinical study formula to be described below.
In particular, the dual effect of raising SAMe while reducing homocysteine would be expected to preserve and improve the condition of DNA methylation, as SAMe is the exclusive methyl group donor for DNA methylation.

[4] = cited from earlier work
[5] = betaine 9 grams daily plus vitamin B12, a liver extract and a creatine precursor; placebo 25%; cited from earlier work
[6] = animal studies; cited from earlier work
[7] = X-ray crystallography of control vs laser treated L-arginine hydrochloride; assay type: physicochemical; details: crystallized from deionized water by slow evaporation at room temperature
Procedure: Each sample was dissolved in 0.50 grams of deionized water. The control sample was crystallized by slow evaporation at room temperature over 24 hours. The average room temperature was approximately 26 degrees Centigrade. The average ambient humidity was approximately 33%.
The treated sample was crystallized under the same conditions with the addition of pulsed modulated energy at 532 nm as described for Arg #1 in Example 2 above. The beam was passed through the center of the meniscus of solution in the container.
Crystals from the control and treated samples were selected for further study. Selected crystals all had dimensions of approximately 0.5 mm on a side or less as per the latest standards in the art. The crystal structures were solved using a SMART X-ray diffraction analytical device.

[8] = X-ray crystallography of control vs laser treated betaine hydrochloride; assay type: physicochemical; details: crystals from deionized water
Procedure: The control and treated betaine hydrochloride samples shown in FIGS. 5A, 5B, 5C, 5D, and 5E were prepared by dissolving 0.6 grams of betaine hydrochloride in 3.0 grams of deionized water and placing the solutions thus prepared in 10×35 mm Petri dishes. Crystallization was done in open containers by slow evaporation at room temperature, a procedure often used in the art of crystallography. Ambient humidity was maintained at or below 30 percent with laboratory dehumidifiers. The treated betaine hydrochloride was irradiated with a 670 nm continuous wave diode laser modulated at 10 MHz with a primary beam power of 2.7 milliwatts that was phase conjugated to 1.35 milliwatts. The 5 mm diameter beam was passed through the middle of fluid meniscus of the treated solution during the entire crystallization process. The control untreated betaine hydrochloride was prepared under the same conditions, except that it was not irradiated with the sparse constructive node generating laser system.
X-ray crystallography was performed using a SMART device made by Siemens. FIGS. 5C and 5D show the intermolecular hydrogen bonding of control versus laser treated betaine hydrochloride, respectively. […]

N=C(N)NCCC[C@H](N)C(=O)O [Arg #1, L-arginine]
nitric oxide byproducts produced compared with control untreated Arg #4 [1]: statistically significantly less
Mean O.D. ± S.D. (optical density at 540 nm, a measure of nitrite concentration) [1]: .215 ± .007

N=C(N)NCCC[C@H](N)C(=O)O [Arg #2, L-arginine]
nitric oxide byproducts produced compared with control untreated Arg #4 [1]: statistically significantly less
Mean O.D. ± S.D. (optical density at 540 nm, a measure of nitrite concentration) [1]: .219 ± .008

N=C(N)NCCC[C@H](N)C(=O)O [Arg #3, L-arginine]
nitric oxide byproducts produced compared with control untreated Arg #4 [1]: statistically significantly more
Mean O.D. ± S.D. (optical density at 540 nm, a measure of nitrite concentration) [1]: .232 ± .010

N=C(N)NCCC[C@H](N)C(=O)O [Arg #4, L-arginine]
Mean O.D. ± S.D. (optical density at 540 nm, a measure of nitrite concentration) [1]: .224 ± .006

CCN(CCO)CCCC(C)Nc1ccnc2cc(Cl)ccc12 (stereo not drawn) [Plaquenil]
relief of lupus symptoms [2]: did little to relieve their symptoms

C[S+](CC[C@H](N)C(=O)[O-])C[C@H]1O[C@@H](n2cnc3c(N)ncnc32)[C@H](O)[C@@H]1O (stereo partly drawn) [SAMe, S-adenosyl-methionine]
blood SAMe level ([3]; 800 mg of SAMe daily for three months, normal range 4.2-8.2): 4.9
knee pain ([3]; SAMe 800 mg daily, formula with one gram laser treated betaine for one month): moderate degree of relief
anti-depressant effects ([4]; 1600 mg per day): comparable to tricyclic anti-depressant drugs
time to anti-depressant effects ([4]; tricyclic medications 4-6 weeks): within one week

C[N+](C)(C)CC(=O)O [betaine, N,N,N-trimethylglycine]
mortality after one year [5]: no mortality
liver SAMe levels [6]: up to fourfold

Cl.N=C(N)NCCC[C@H](N)C(=O)O [control L-arginine hydrochloride, L-arginine hydrochloride]
crystal form / water in the crystal lattice [7]: monohydrated crystal

Cl.N=C(N)NCCC[C@H](N)C(=O)O [laser treated L-arginine hydrochloride, L-arginine hydrochloride]
crystal form / water in the crystal lattice [7]: free of water in the crystal lattice

C[N+](C)(C)CC(=O)O [treated betaine hydrochloride, betaine hydrochloride]
intermolecular hydrogen bonds per molecule [8]: 3

C[N+](C)(C)CC(=O)O [untreated betaine hydrochloride, betaine hydrochloride]
intermolecular hydrogen bonds per molecule [8]: 4
